The values that follow come from patent US7547804B2, “Compounds, compositions, and methods employing same” (Myriad Genetics, Inc., priority 2002, dated 2009).

What is called pEC50 is the negative decadic logarithm of the EC50, by convention in mol/L.

pEC50: −log10 of the molar value.

In one assay the test system is LNCaP cell lines. In words: WST-1 Cell Proliferation and Viability Assay. Conditions: Homo sapiens; LNCaP cells, compound incubation 18-72 hours. In kind it is cell-based. As for the experimental part: WST-1 Cell Proliferation and Viability Assay
Cell proliferation and cell viability was assessed using the tetrazolium salt WST-1 (Roche Applied Science, Indianapolis Ind.). The assay is based on the cleavage of WST-1 (light red) by mitochondrial dehydrogenase causing the formation of formazan (dark red), which can be measured on an optical density (O.D.) reader. LNCaP cell lines were plated in 96 well tissue culture plates (Corning Costar, N.Y.) at a density of 5000 cells/well in 150 μl complete media phenol-red free (RPMI-1640 [Invitrogen, Carlsbad Calif.] and 10% fetal calf serum). This plate is termed the assay plate. After the cells are plated, they are then incubated overnight at 37 degrees Celsius in a humidified chamber containing 5% CO2 (incubator).
Compounds are added to the assay plate in 50 μl of complete media and 0.4% DMSO (v:v) making the final DMSO concentration 0.1%. The assay plate is then returned to the incubator for 18-72 hours. WST-1 reagent is then added (20 μl/well) and the plate is placed on an ELISA plate shaker for 30 minutes at room temperature. Plates are then transferred back to the incubator for an additional 3 hours. Plates are then read on a 96 well plate O.D. reader at A490-A650.
On the technique in general: Formazan colour is commonly taken as a measure of viable cells.
In the case of `Cc1cc(C)c(OCCc2ccccc2)c(NC(=O)c2cc(Cl)ccc2O)c1` [Compound 101], the negative logarithm of the EC50 (pEC50) is 5.40. Consider `CC(C)(C)c1ccc(OCCc2ccccc2)c(NC(=O)c2cc(Cl)ccc2O)c1` [Compound 102], for which the pEC50 was 5.70. Still for that read-out and setting: for `CCC(COc1ccc(Cl)cc1NC(=O)c1cc(Cl)ccc1O)c1ccccc1` (centres unmarked) [Compound 103] the value was 5.70; for `O=C(Nc1cc(C(F)(F)F)ccc1OCCc1ccccc1)c1cc(Cl)ccc1O` [Compound 104], 6.10. `Cc1cc(C)cc(COc2cccc(NC(=O)c3cc(Cl)ccc3O)c2)c1` [Compound 105] gave a pEC50 of 5.10.

`O=C(Nc1cc(Cl)ccc1OCCc1ccc(F)cc1)c1cc(Cl)ccc1O` [Compound 106] had a pEC50 of 6.00. `O=C(Nc1cc(Cl)ccc1OCCc1ccccc1F)c1cc(Cl)ccc1O` [Compound 107] gave a negative logarithm of the EC50 (pEC50) of 5.70. In turn, `CN(C)c1ccc(CCOc2ccc(Cl)cc2NC(=O)c2cc(Cl)ccc2O)cc1` [Compound 108] gave a negative-log EC50 (pEC50) of 5.52. Regarding `O=C(Nc1cc(Cl)ccc1OCCc1cccc(Cl)c1)c1cc(Cl)ccc1O` [Compound 109], the pEC50 is 6.00. As for `O=C(Nc1cc(Cl)ccc1OCCc1ccccc1Cl)c1cc(Cl)ccc1O` [Compound 110], the negative-log EC50 (pEC50) is 6.00.

`O=C(Nc1cc(Cl)ccc1OCCc1cccc(F)c1)c1cc(Cl)ccc1O` [Compound 111] had a negative-log EC50 (pEC50) of 6.00.

As for `COc1cccc(CCOc2ccc(Cl)cc2NC(=O)c2cc(Cl)ccc2O)c1` [Compound 112], the negative-log EC50 (pEC50) is 5.70.

Regarding `Cc1cccc(NC(=O)c2cc(Cl)ccc2O)c1` [Compound 113], the pEC50 was 5.10. In turn, `Cc1ccc(NC(=O)c2cc(Cl)ccc2O)cc1` [Compound 114] had a pEC50 of 5.00. `O=C(Nc1cc(Cl)ccc1OCC(c1ccccc1)c1ccccc1)c1cc(Cl)ccc1O` [Compound 117] gave a negative-log EC50 (pEC50) of 5.70. Regarding `O=C(NCc1cc(C(F)(F)F)cc(C(F)(F)F)c1)c1cc(Cl)ccc1O` [Compound 122], the pEC50 is 5.05.

`O=CNc1cc(Cl)cc(C(=O)Nc2cccc(OCCc3ccccc3)c2)c1O` [Compound 124] showed a negative logarithm of the EC50 (pEC50) of 5.10. On the same count and under the same terms, for `O=C(Nc1cccc(OCCc2cccc(C(F)(F)F)c2)c1)c1cc(Cl)ccc1O` [Compound 125] the value was 5.22; for `O=C(Nc1ccccc1OC1CCCC[C@H]1c1ccccc1)c1cc(Cl)ccc1O` (some centres unmarked) [Compound 126], 5.22. Take `CCC(COc1cc(NC(=O)c2cc(Cl)ccc2O)ccc1C)c1ccccc1` (centres unmarked) [Compound 127]: the negative logarithm of the EC50 (pEC50) is 5.70. Regarding `CCC(COc1ccc(C)c(NC(=O)c2cc(Cl)ccc2O)c1)c1ccccc1` (centres unmarked) [Compound 128], the pEC50 was 5.70. `O=C(Nc1cc(C(F)(F)F)ccc1OCCc1ccc(Cl)cc1)c1cc(Cl)ccc1O` [Compound 129] showed a pEC50 of 6.10.

Compound `O=C(Nc1cc(C(F)(F)F)cc(Cl)c1OCCc1ccc(C(F)(F)F)cc1)c1cc(Cl)ccc1O` [Compound 130] had a pEC50 of 5.70. On the same count and under the same terms, next, `Cc1cc(C)c(OCCc2ccccc2C(F)(F)F)c(NC(=O)c2cc(Cl)ccc2O)c1` [Compound 131]: 5.70. On the same count and under the same terms, for `Cc1oc(-c2ccccc2)nc1CCOc1ccc(Cl)cc1NC(=O)c1cc(Cl)ccc1O` [Compound 132] the value was 5.30. On the same count and under the same terms, next, `COc1ccccc1CCOc1ccc(Cl)cc1NC(=O)c1cc(Cl)ccc1O` [Compound 133]: 5.52; `O=C(Nc1cc(C(F)(F)F)ccc1OCCc1ccccc1C(F)(F)F)c1cc(Cl)ccc1O` [Compound 134]: 6.05; `Cc1cc(C)c(CCOc2ccc(C(F)(F)F)cc2NC(=O)c2cc(Cl)ccc2O)c(C)c1` [Compound 135]: 6.10. `Cc1cc(OCCc2ccccc2C(F)(F)F)c(NC(=O)c2cc(Cl)ccc2O)cc1Cl` [Compound 136] had a pEC50 of 6.00. Same read-out and setting: for `O=C(Nc1cccc(Cl)c1OCCc1ccccc1C(F)(F)F)c1cc(Cl)ccc1O` [Compound 137] the value was 5.30; for `O=C(Nc1cccc(OCCc2ccccc2C(F)(F)F)c1)c1cc(Cl)ccc1O` [Compound 138], 5.22; for `N#Cc1ccc(OCCc2ccccc2C(F)(F)F)c(NC(=O)c2cc(Cl)ccc2O)c1` [Compound 140], 5.52.

With `O=C(Nc1cc(C(F)(F)F)ccc1OCCCc1ccccc1)c1cc(Cl)ccc1O` [Compound 141], the pEC50 is 6.00.

The compound `Cc1ccc(OCCc2ccccc2C(F)(F)F)c(NC(=O)c2cc(Cl)ccc2O)c1` [Compound 142] gave a negative-log EC50 (pEC50) of 5.52. The same measure, in the same setting: next, `O=C(NCCc1cccc(OCCc2ccccc2)c1)c1cc(Cl)ccc1O` [Compound 143]: 4.85; `Cc1cccc(-c2cccc(CNC(=O)c3cc(Cl)ccc3O)c2)c1` [Compound 145]: 4.77. Consider `COc1ccc(OCCc2ccccc2)c(NC(=O)c2cc(Cl)ccc2O)c1` [Compound 147], for which the negative logarithm of the EC50 (pEC50) is 5.22. The compound `Cc1ccc(OCCc2ccccc2)c(NC(=O)c2cc(Cl)ccc2O)c1` [Compound 149] had a pEC50 of 5.40. Still for that read-out and setting: for `Cc1ccc(NC(=O)c2cc(Cl)ccc2O)c(OCCc2ccccc2)c1` [Compound 150] the value was 5.22; for `N#Cc1ccc(OCCc2ccccc2)c(NC(=O)c2cc(Cl)ccc2O)c1` [Compound 152], 5.15. `Cc1cc(OCCc2ccccc2)c(NC(=O)c2cc(Cl)ccc2O)cc1Cl` [Compound 153] gave a pEC50 of 6.00. On the same count and under the same terms, for `O=C(Nc1cccc(Cl)c1OCCc1ccccc1)c1cc(Cl)ccc1O` [Compound 154] the value was 5.40; for `O=C(Nc1cc(C(F)(F)F)ccc1OCCc1cccc(C(F)(F)F)c1)c1cc(Cl)ccc1O` [Compound 155], 6.40; for `O=C(Nc1ccc(OCCc2ccccc2)cc1C(F)(F)F)c1cc(Cl)ccc1O` [Compound 156], 4.80. The compound `Cc1ccc(OCCc2cccc(C(F)(F)F)c2)c(NC(=O)c2cc(Cl)ccc2O)c1` [Compound 157] had a pEC50 of 5.70.

With `O=C(Nc1cccc(Cl)c1OCCc1cccc(C(F)(F)F)c1)c1cc(Cl)ccc1O` [Compound 158], the pEC50 was 5.70. The same measure, in the same setting: next, `Cc1cc(C)c(OCCc2cccc(C(F)(F)F)c2)c(NC(=O)c2cc(Cl)ccc2O)c1` [Compound 159]: 5.70.

Still in this assay, the particulars now being: Homo sapiens; LNCaP cells; flagged "Estimated": based on actual data at different concentrations.
As for `O=C(NCc1ccccc1OCCc1ccccc1)c1cc(Cl)ccc1O` [Compound 116], the negative-log EC50 (pEC50) is 4.52. Regarding `O=C(NCCc1ccccc1Oc1ccccc1)c1cc(Cl)ccc1O` [Compound 118], the negative logarithm of the EC50 (pEC50) is 4.52. Same read-out and setting: next, `O=C(NCCc1ccccc1OCc1ccccc1)c1cc(Cl)ccc1O` [Compound 119]: 4.70; `Cc1c(CNC(=O)c2cc(Cl)ccc2O)cccc1-c1ccccc1` [Compound 120]: 4.74. Still for that read-out and setting: next, `O=C(NCc1cccc(C(F)(F)F)c1)c1cc(Cl)ccc1O` [Compound 121]: 4.52; `O=C(Nc1cccc(OCCc2ccccc2)c1)c1cc(Cl)cc([N+](=O)[O-])c1O` [Compound 123]: 4.52. On the same count and under the same terms, for `Cc1ccccc1-c1cccc(CNC(=O)c2cc(Cl)ccc2O)c1` [Compound 144] the value was 4.52; for `CCc1ccccc1-c1cccc(CNC(=O)c2cc(Cl)ccc2O)c1` [Compound 146], 4.52; for `O=C(Nc1cc(NC(=O)c2cc(Cl)ccc2O)cc(C(F)(F)F)c1)c1cc(Cl)ccc1O` [Compound 151], 4.52.
